The NIST ThermoML archive (doi:10.1016/j.jct.2011.02.008)
Numbers after ± are expanded uncertainties.

Experiment: xn = mol fraction of the nth substance listed
Conditions: Liquid, Vibrating tube method

COC(=O)c1ccccc1 [methyl benzoate] + CCCCCCO
mass density [kg/m3]
Conditions | x1 = 0.1004 | x1 = 0.2007 | x1 = 0.3007 | x1 = 0.4013 | x1 = 0.5005 | x1 = 0.6009 | x1 = 0.7 | x1 = 0.8008 | x1 = 0.9009
288.15 K, 1000 kPa | – | – | – | – | – | – | 1011.7 ± 2.4 | 1039 ± 2.4 | 1066 ± 2.4
288.15 K, 5000 kPa | 852.3 ± 2.4 | 879.2 ± 2.4 | 906.4 ± 2.4 | 933.6 ± 2.4 | 960.4 ± 2.4 | 987.5 ± 2.4 | 1014.2 ± 2.4 | 1041.4 ± 2.4 | 1068.5 ± 2.4
288.15 K, 10000 kPa | 855.5 ± 2.4 | 882.4 ± 2.4 | 909.5 ± 2.4 | 936.7 ± 2.4 | 963.5 ± 2.4 | 990.6 ± 2.4 | 1017.2 ± 2.4 | 1044.5 ± 2.4 | 1071.5 ± 2.4
288.15 K, 15000 kPa | 858.5 ± 2.4 | 885.5 ± 2.4 | 912.6 ± 2.4 | 939.7 ± 2.4 | 966.5 ± 2.4 | 993.6 ± 2.4 | 1020.2 ± 2.4 | 1047.4 ± 2.4 | 1074.4 ± 2.4
288.15 K, 20000 kPa | 861.5 ± 2.4 | 888.4 ± 2.4 | 915.5 ± 2.4 | 942.6 ± 2.4 | 969.4 ± 2.4 | 996.4 ± 2.4 | 1023 ± 2.4 | 1050.2 ± 2.4 | 1077.2 ± 2.4
288.15 K, 25000 kPa | 864.3 ± 2.4 | 891.2 ± 2.4 | 918.3 ± 2.4 | 945.4 ± 2.4 | 972.2 ± 2.4 | 999.3 ± 2.4 | 1025.8 ± 2.4 | 1053 ± 2.4 | 1080 ± 2.4
288.15 K, 30000 kPa | 867.1 ± 2.4 | 894 ± 2.4 | 921.1 ± 2.4 | 948.2 ± 2.4 | 975 ± 2.4 | 1002 ± 2.4 | 1028.5 ± 2.4 | 1055.7 ± 2.4 | 1082.6 ± 2.4
288.15 K, 35000 kPa | 869.8 ± 2.4 | 896.7 ± 2.4 | 923.8 ± 2.4 | 950.9 ± 2.4 | 977.7 ± 2.4 | 1004.6 ± 2.4 | 1031.2 ± 2.4 | 1058.3 ± 2.4 | 1085.2 ± 2.4
288.15 K, 40000 kPa | 872.4 ± 2.4 | 899.3 ± 2.4 | 926.4 ± 2.4 | 953.5 ± 2.4 | 980.2 ± 2.4 | 1007.2 ± 2.4 | 1033.8 ± 2.4 | 1060.9 ± 2.4 | 1087.8 ± 2.4
288.15 K, 45000 kPa | 875 ± 2.4 | 901.8 ± 2.4 | 929 ± 2.4 | 956 ± 2.4 | 982.8 ± 2.4 | 1009.8 ± 2.4 | 1036.3 ± 2.4 | 1063.4 ± 2.4 | 1090.3 ± 2.4
288.15 K, 50000 kPa | 877.5 ± 2.4 | 904.4 ± 2.4 | 931.5 ± 2.4 | 958.5 ± 2.4 | 985.3 ± 2.4 | 1012.3 ± 2.4 | 1038.8 ± 2.4 | 1065.9 ± 2.4 | 1092.8 ± 2.4
288.15 K, 55000 kPa | 879.9 ± 2.4 | 906.8 ± 2.4 | 933.9 ± 2.4 | 961 ± 2.4 | 987.8 ± 2.4 | 1014.7 ± 2.4 | 1041.3 ± 2.4 | 1068.3 ± 2.4 | 1095.2 ± 2.4
288.15 K, 60000 kPa | 882.3 ± 2.4 | 909.2 ± 2.4 | 936.2 ± 2.4 | 963.2 ± 2.4 | 990 ± 2.4 | 1017 ± 2.4 | 1043.7 ± 2.4 | 1070.6 ± 2.4 | 1097.5 ± 2.4
298.15 K, 100 kPa | 841.5 ± 2.4 | 868.2 ± 2.4 | 895.1 ± 2.4 | 922 ± 2.4 | 948.6 ± 2.4 | 975.5 ± 2.4 | 1002 ± 2.4 | 1029.1 ± 2.4 | 1056 ± 2.4
298.15 K, 1000 kPa | 842.2 ± 2.4 | 868.8 ± 2.4 | 895.7 ± 2.4 | 922.6 ± 2.4 | 949.2 ± 2.4 | 976.1 ± 2.4 | 1002.6 ± 2.4 | 1029.7 ± 2.4 | 1056.6 ± 2.4
298.15 K, 5000 kPa | 844.9 ± 2.4 | 871.6 ± 2.4 | 898.4 ± 2.4 | 925.3 ± 2.4 | 951.9 ± 2.4 | 978.8 ± 2.4 | 1005.3 ± 2.4 | 1032.3 ± 2.4 | 1059.2 ± 2.4
298.15 K, 10000 kPa | 848.3 ± 2.4 | 874.9 ± 2.4 | 901.7 ± 2.4 | 928.5 ± 2.4 | – | – | – | – | –
